Reference: ChEMBL document CHEMBL4422694, “α-Glucosidase Inhibitory Flavonoids and Oxepinones from the Leaf and Twig Extracts of Desmos cochinchinensis” (J Nat Prod, 2019)
pIC50: −log10 of the molar value.

How the values were obtained:
Saccharomyces cerevisiae = test: Inhibition of Saccharomyces cerevisiae alpha-glucosidase at 200 ug/mL using p-nitrophenyl alpha-D-glucoside as substrate by colorimetric assay
[1] = Inhibition of Saccharomyces cerevisiae alpha-glucosidase using p-nitrophenyl alpha-D-glucoside as substrate by colorimetric assay

SMILES	inhibition (Saccharomyces cerevisiae) [%]	pIC50 [1]
COc1cc(O)c2c(=O)cc(-c3ccccc3)oc2c1 [TECHTOCHRYSIN]	90.9	3.80
CC(=O)O[C@H]1C(=O)C=COC=C1COC(=O)c1ccccc1 [GRANDIUVARONE A]	98.2	5.51
O=c1cc(-c2ccccc2)oc2c(Cc3cccc(O)c3O)c(O)cc(O)c12	96.1	6.05
O=C1C[C@@H](c2ccccc2)Oc2cc(O)cc(O)c21 [PINOCEMBRIN]	97.7	5.37
CC(=O)O[C@@H]1C=COC=C(COC(=O)c2ccccc2)C1=O	95.5	5.44
O=c1cc(-c2ccccc2)oc2c(Cc3cc(O)ccc3O)c(O)cc(O)c12	95.8	6.05
O=C(OCc1ccccc1O)c1ccccc1	97.5	5.37
O=C1C[C@@H](c2ccccc2)Oc2cc(O)c(Cc3ccccc3O)c(O)c21 [ISOCHAMANETIN]	93.2	5.54
O=c1cc(-c2ccccc2)oc2cc(O)cc(O)c12 [CHRYSIN]	95.4	5.31
O=C1C[C@@H](c2ccccc2)Oc2c(Cc3ccccc3O)c(O)c(Cc3ccccc3O)c(O)c21 [DICHAMANETIN]	99.1	6.70
O=C(OC[C@@]1(O)C(=O)C=C[C@@H](OC(=O)c2ccccc2)[C@@H]1O)c1ccccc1	98.7	4.14
C[C@H]1O[C@H](O[C@H]2[C@H](O)[C@@H](O)[C@@H](O[C@H]3[C@H](O)[C@@H](O)C(O)O[C@@H]3CO)O[C@@H]2CO)[C@H](O)[C@@H](O)[C@@H]1N[C@H]1C=C(CO)[C@@H](O)[C@H](O)[C@H]1O (some centres undefined) [ACARBOSE]		3.77
CC(=O)OC/C=C\C=C(/COC(C)=O)COC(=O)c1ccccc1	99.1	4.39
CC(=O)OC/C=C\C=C(/CO)COC(=O)c1ccccc1	94	3.86
CC(=O)O[C@@H]1C=COC=C(CO)C1=O	92.1	5.31
